The values below come from patent US20220175809A1, “TREATMENT AND PREVENTION OF INFECTIONS BY HERPESVIRIDAE WITH DELPHINIDIN-3-GLUCOSIDE” (Evonik Operations GmbH, priority 2019, published 2022).

In test [1] the test system is HHV-8. The test can be described thus: Anti-viral assay, GFP-encoding HHV-8 infection (infected cells counted). In kind it is cell-based, Herpes virus 8. The note with it: materials adjusted to same anthocyanin levels, counted two days after infection. The protocol: (§1) BHK cells were incubated with decreasing concentration of the solubilized test compounds for approx. 1 h. All concentrations were analyzed by six independent replicates on a black 96 well plate (PerkinElmer). Cells were infected with GFP-encoding wildtype HSV-1 virus and incubated for two days. Two days after infection, HSV-1-infected cells and GFP expressing cells were directly counted using the PerkinElmer Ensight system with optical cell culture plates. The instrument was controlled by manual counting. Anti-viral assays for HHV8 were performed accordingly. To not only analyze the virus entry and early phase of virus replication of infection but also later phases of viral replication, the test assay was adjusted accordingly. BHK cells were incubated with test compounds and subsequently infected with HSV-1. Two days after infection supernatants were collected, centrifuged to remove detached cells and used to infect BHK cells. After two additional days infected cells were quantified using the Ensight system.
The concentrations of materials were again adjusted to the same levels of anthocyanins. No treatment or only maltodextrin served as controls. The cells were subsequently infected with GFP-encoding HHV-8, and infected GFP-expressing cells were counted two days after infection using the PerkinElmer Ensight system. […] The analysis of berry extract analogue without maltodextrin and the maltodextrin control confirmed again that the sugar moiety is not required as potential co-factor for drug uptake.

Test [2] deals with HSV-1. The test can be described thus: Anti-viral assay, GFP-encoding HSV-1 infection of BHK cells (infected cells counted). In kind it is cell-based, herpes simplex virus 1. The following applies: BHK cells treated with anthocyanins, then GFP-encoding HSV-1. The protocol:
as §1
The cells were subsequently infected with GFP-encoding HSV at a multiplicity of infection of 2.5, and infected GFP-expressing cells were counted one day after infection using the PerkinElmer Ensight system. […] Thus, the sugar is not required as potential co-factor for drug uptake.

For `OC[C@H]1OC(Oc2cc3c(O)cc(O)cc3[o+]c2-c2cc(O)c(O)c(O)c2)[C@H](O)C(O)C1O` (stereo partly shown) [D3G, Delphinidin-3-glucoside], the “suppression of HHV-8 viral infectivity” value is given as “identified as an active ingredient” in test [1], “reduced the number of infected cells significantly” in test [1] (listed as D3G derived from red grape extract) and “reduced the number of infected cells significantly” in test [1] (listed as D3G from Healthberry® 865). Moreover, the “inhibition of HSV-1 (viral infectivity)” value in test [2] was “decreased viral infectivity like Healthberry® 865”.
